{"source": "paper PMC3618206", "about": "“High-throughput fluorescent-based NKCC functional assay in adherent epithelial cells” (BMC Cell Biology, 2013)", "tested_on": "T1, c-NKCC2 (chimeric NKCC1-NKCC2 construct)", "T1 construct": "gene SLC12A2; single polypeptide chimera: NKCC1 backbone with whole NKCC1 transmembrane domain, C-terminal apical sorting domain exchanged for that of mammalian NKCC2 isoform B; N-terminal HA tag; stably expressed in LLC-PK1 cells; NKCC2 part possibly rabbit; with Solute carrier family 12 member 1 (isoform B, C-terminal apical sorting domain)", "test": "FluxOR Tl+ influx fluorescence, initial rate, FlexStation, stably transfected LLC-PK1 cells", "type": "cell-based", "conditions": "external Cl- 3-135 mM (gluconate replacement); co-substrates Na+ and Tl+ (2 mM Tl2SO4), K+-free, pH 7.4; single-site fit; Cl- starved cells", "data": [{"smiles": "Cl", "note": "[Cl^-]", "values": [{"measurement": "Km", "result": 23.4, "unit": "mM"}]}]}
